Measurements published in PubChem BioAssay (NCI).
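Step 1: Grow cells in 96-well plates. Step 2: Expose to compound for 48 hours at 5 concentrations. Step 3: Interpolate endpoints linearly; if unreached, use highest concentration. TGI: total growth inhibition.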

Assays:
Experiment in all cases: NCI-60 cell line screen, 48 h
UACC-257 melanoma = test system: UACC-257 melanoma
COLO 205 colon = test system: COLO 205 colon
SNB-19 CNS = test system: SNB-19 CNS
MOLT-4 leukemia = test system: MOLT-4 leukemia
SK-OV-3 ovarian = test system: SK-OV-3 ovarian
SNB-75 CNS = test system: SNB-75 CNS
MALME-3M melanoma = test system: MALME-3M melanoma
PC-3 prostate = test system: PC-3 prostate
EKVX NSCLC = test system: EKVX NSCLC
HCC-2998 colon = test system: HCC-2998 colon
M14 melanoma = test system: M14 melanoma
SF-268 CNS = test system: SF-268 CNS
KM12 colon = test system: KM12 colon
HCT-15 colon = test system: HCT-15 colon
NCI-H522 lung = test system: NCI-H522 lung
NCI-H460 lung = test system: NCI-H460 lung
A549 NSCLC = test system: A549 NSCLC
SK-MEL-2 melanoma = test system: SK-MEL-2 melanoma
HT29 colon = test system: HT29 colon
786-0 renal = test system: 786-0 renal
SK-MEL-28 melanoma = test system: SK-MEL-28 melanoma
DU-145 prostate = test system: DU-145 prostate
HS 578T breast = test system: HS 578T breast
SF-539 CNS = test system: SF-539 CNS
MCF7 breast = test system: MCF7 breast
UACC-62 melanoma = test system: UACC-62 melanoma
LOX IMVI melanoma = test system: LOX IMVI melanoma
NCI-H226 lung = test system: NCI-H226 lung
CCRF-CEM leukemia = test system: CCRF-CEM leukemia
K-562 leukemia = test system: K-562 leukemia
NCI/ADR-RES ovarian = test system: NCI/ADR-RES ovarian
MDA-MB-231 breast = test system: MDA-MB-231 breast
IGROV1 ovarian = test system: IGROV1 ovarian
HL-60(TB) leukemia = test system: HL-60(TB) leukemia
TK-10 renal = test system: TK-10 renal
MDA-N = test system: MDA-N
UO-31 renal = test system: UO-31 renal
HOP-62 NSCLC = test system: HOP-62 NSCLC
HOP-92 NSCLC = test system: HOP-92 NSCLC
SK-MEL-5 melanoma = test system: SK-MEL-5 melanoma
T-47D breast = test system: T-47D breast
MDA-MB-435 = test system: MDA-MB-435
RXF 393 renal = test system: RXF 393 renal
SR leukemia = test system: SR leukemia
CAKI-1 renal = test system: CAKI-1 renal
OVCAR-8 ovarian = test system: OVCAR-8 ovarian
ACHN renal = test system: ACHN renal
A498 renal = test system: A498 renal
SF-295 CNS = test system: SF-295 CNS
SW-620 colon = test system: SW-620 colon
OVCAR-4 ovarian = test system: OVCAR-4 ovarian
HCT-116 colon = test system: HCT-116 colon
NCI-H23 lung = test system: NCI-H23 lung
SN12C renal = test system: SN12C renal
U251 CNS = test system: U251 CNS
RPMI-8226 leukemia = test system: RPMI-8226 leukemia
OVCAR-3 ovarian = test system: OVCAR-3 ovarian

Measured: TGI

COc1cc(CNC(=O)CCCCCCCC/C=C/Br)ccc1O
> 10 µM: all assays above
